The values that follow come from a melting point compilation (Tetko et al.; mined from patent text by program, amines drawn as free bases though some values may be those of a salt).

Structures are written as SMILES.

As to `CCOC(=O)c1ccc(NC(=O)c2ccc3c(c2)CCC(C)(C)C(=O)N3C)cc1`, the melting point is 169 to 170 °C.
The same measure for `COc1cc(-c2nc(N(C)CCN(C)C)c3c(C)c(C#N)sc3n2)cc(OC)c1OC`: 125 to 127 °C.
The same measure for `CC(=O)c1ccc(-n2c(-c3sc(Nc4ccccc4)nc3C)nc3ccccc3c2=O)cc1`: 271 to 273 °C; for `CN(C(=O)OC(C)(C)C)c1cc(Sc2cc(C(C)(C)C)c(O)c(C(C)(C)C)c2)ccc1[N+](=O)[O-]`: 140 to 141 °C; for `CCCCc1nc2sccc2n1Cc1ccc(-c2ccccc2C(=O)O)cc1`: 203 °C.
The same measure for `CCCC1(c2ccccc2Cl)C(=O)Nc2ccc(OCC)cc21` (configuration not stated): 136 °C; for `CCN(CCCc1c[nH]c2c(OC)cccc12)C1COc2c(F)ccc(C(N)=O)c2C1` (configuration not stated): 148 to 153 °C; for `CC(C)NC(=O)NNC=NC(=O)c1nc(F)c(N)nc1N`: 221 °C.
Turning to `CC1CCc2ncc(-c3ccccc3)c(=O)n21` (configuration not stated), the melting point was in the range of 118 to 122 °C.
The same measure for `CCOc1cc(N)c(Cl)cc1C(=O)NCC1CN(Cc2ccc(F)cc2)CCO1` (configuration not stated): 151 to 153 °C; for `C#Cc1ccnc(-c2cc([N+](=O)[O-])c(-c3cc(C#C)ccn3)cc2N)c1`: 154 to 160 °C.
The compound `N#Cc1cnn2c1NCC=C2c1ccc(Cl)cc1` came in with a melting point of 208 to 209 °C.
The same measure for `CCC1C(O)C2C3CCC(C(C)CCC(=O)O)C3(C)CCC2C2(C)CCC(O)CC12` (configuration not stated): 110 °C.
Turning to `Nc1c(F)c(F)cc(F)c1[N+](=O)[O-]`, the melting point worked out at 66 °C.
As for `CC(C(N)=O)c1ccc(-n2cc(Cl)cn2)c(Cl)c1` (configuration not stated), the melting point is 131 to 132 °C.
The same measure for `Cn1cnc(S(=O)(=O)NCCc2ccc(OCC(=O)O)cc2)c1`: 203 to 204 °C; for `CC(=O)Oc1c2c(c3ccccc3c1OC(=O)CNC(=O)OC(C)(C)C)OC(C)(C)CC2`: 177 °C.
Turning to `O=C1CCC(c2ccc(Cl)c(Cl)c2)c2ccccc2N1` (configuration not stated), the melting point is 191 to 194 °C.
`CCOC(=O)C1=CC(OC)(OC)CCC1S(=O)(=O)Nc1ccc(F)cc1Cl` (configuration not stated) had a melting point of 97 to 98 °C.
`CN(C)c1ccc([N+](=O)[O-])c(CN)c1`: the melting point lay within 97 to 98 °C.
As to `CC(C)OC(=O)N1CCC(c2ccc3nc(-c4ccc(S(C)(=O)=O)cc4F)sc3c2)CC1`, the melting point is 163 to 166 °C.
`CN1CCN(c2cc(Cl)c3c(c2)N(Cc2ccccc2)C(=O)N(Cc2cccc(O)c2)S3(=O)=O)CC1` came in with a melting point of 170 to 172 °C.
With `CC(=O)C(=O)Nc1ccc(Cl)cc1`, the melting point was 151 °C.
The same measure for `CC(C)c1ccc(-n2ncc(C(=O)NC34CC5CC(CC(C5)C3)C4)c2OCCN2CCOCC2)cc1`: 132 to 134 °C; for `O=C(Oc1cc(OC(=O)c2ccccc2)c(Cl)cn1)c1ccccc1`: 124 to 125 °C.
With `O=C1c2ccc(N3CCCC3)c3cc([N+](=O)[O-])cc(c23)C(=O)N1O`, the melting point lay within 290 to 291 °C.
In turn, `Cn1cncc1C(O)(c1ccc(Cl)cc1)c1ccc2c(c1)c(-c1cccc(Cl)c1)nc1nnnn12` (configuration not stated) displayed a melting point of 139 °C.
The same measure for `C=C1c2c(C)c(OCc3ccccc3)c(C)c(C)c2OC1(C)C`: 55 to 57 °C; for `CNC(=O)CCC(=O)c1c(O)cccc1OC`: 125 °C; for `NC(=O)c1sc2nccc(N3CCN(C(c4ccccc4)c4ccccc4)CC3)c2c1N`: 225 to 233 °C.
Compound `O=S(CC#CCOc1ccccc1)c1ccc(Cl)cc1` (configuration not stated) yielded a melting point of 102 to 103 °C.
`CC(C)(C=NO)n1ccnc1` returned a melting point of 117 to 120 °C.
`COc1ccc(-c2c(O)c3ccc(Cl)cc3[nH]c2=O)cc1OC` displayed a melting point of 312 to 314 °C.
`COc1ccc(C(=O)Nc2ccccc2)cc1NCc1ccc(C(C)C)cc1`: the melting point lay within 174 to 176 °C.
The compound `Nc1ccc(OCC(=O)N2CC=C(c3ccc(F)cc3)CC2)cc1` came in with a melting point of 120 to 122 °C.
`CCCCC(=O)Nc1c(N)ccnc1Cl` displayed a melting point of 163 °C.
As to `COc1cc2c(Nc3ccc(Cl)cc3F)c(C#N)cnc2c(OC)c1OC`, the melting point is 166 to 168 °C.
In turn, `CC1(C)Oc2ccc(S(=O)(=O)c3ccccc3)cc2C2OC21` (configuration not stated) yielded a melting point of 103 to 105 °C.
For the compound `O=C(Nc1cccc(F)c1)NC1CCN(S(=O)(=O)c2cccc(C(F)(F)F)c2)CC1`, the melting point lay within 86 to 88 °C.
The same measure for `C=C(C)C(=O)OCCCc1cc(CCCOC(=O)C(=C)C)c2oc(=O)c(-c3ccc(OC(=O)C(=C)C)cc3)cc2c1`: 49 °C; for `N#Cc1ccc(CC(NC(=O)OCc2ccccc2)C(=O)Nc2cccc(C(=O)NCCC(=O)OCc3ccccc3)c2)cc1` (racemic): 145 to 146 °C; for `CCCC1=C(C(=O)OCC)C(c2cccc(C)c2OC)c2c[nH]nc2N1` (configuration not stated): 220 to 222 °C.
The same measure for `CCOC(=O)C(F)(F)C(O)C(CC(C)C)NC(=O)OC(C)(C)C` (configuration not stated): 72 to 76 °C.
`O=C1N(Cc2ccccn2)c2cccc(-c3ccoc3)c2C12COc1cc3c(cc12)CCO3` (configuration not stated) yielded a melting point of 195 to 197 °C.
`COc1cc(-c2cnc3[nH]cc(C(=O)C(C)C)c3n2)cc(OC)c1OC` came in with a melting point of 189 to 190 °C.
The same measure for `COC(=O)c1ccccc1-c1ccc(COc2cc(C)nc3cccnc23)cc1`: 132 to 134 °C; for `COc1cc2c(cc1C)CCN=C2CCc1ccc(Cl)cc1`: 122 to 124 °C; for `CCOC(=O)Cn1nc(-c2ccc(OC)cc2)cc(C(=O)NC)c1=O`: 141 to 142 °C.
Consider `C=CCN1C(=O)COc2cc(F)c(-n3c(=O)cc(CC)[nH]c3=O)cc21`, for which the melting point lay in the range of 197 to 200 °C.
The same measure for `O=C(NCc1ccccc1)c1ccnc(NC(=O)C2CCCC2)c1`: 55 to 57 °C; for `CC(=O)Nc1cc2c(c3c1OC(C)(C)C3)C(c1ccccc1)=NC(C)(C)C2`: 175 to 180 °C.
In turn, `CC(=O)NC(=O)CSC(=O)Cc1ccccc1` came in with a melting point of 123 to 124 °C.
`CC(C)(C)OC(=O)N[C@H](CCCNC(N)=N[N+](=O)[O-])C(=O)NCc1ccc(CNC(N)=O)cc1` yielded a melting point of 172 °C.
Turning to `NC(=O)CCSC(SCCC(=O)O)c1cccc(SCc2ccc3ccc(Cl)cc3n2)c1` (configuration not stated), the melting point is 141 to 142 °C.
The same measure for `CS(=O)(=O)c1ncc(F)c(NCc2ccccc2F)n1`: 105 to 107 °C; for `Cc1cc(Br)cnc1CCCCNc1nccc(=O)[nH]1`: 109 to 113 °C.
In turn, `CC(=O)Oc1ccccc1C(=O)Nc1cc(Cl)c(OC(C)=O)c(Cl)c1` registered a melting point of 154 to 156 °C.
On to `COc1cc(OCCCN2CCC[C@H]2C)ccc1-c1ccc(=O)[nH]n1`, for which the melting point fell in the range of 182 to 186 °C.
`O=C1NC(=O)c2c1c(-c1ccccc1)cc1c2c2cc(O)ccc2n1CCN1CCOCC1` came in with a melting point of 260 to 262 °C.
In turn, `CCOC(=O)C1CCCCN1C(=O)/C=C/c1ccc(Sc2ccc3c(c2)OCCO3)c([N+](=O)[O-])c1` (configuration not stated) showed a melting point of 74 to 75 °C.
Regarding `CC(C)C(=O)NCc1ccc2ccn(C3CCN(CCc4ccc(F)cc4)CC3)c2c1`, the melting point is 97 to 98 °C.
The compound `COC(=O)c1ccc2cc(CO)ccc2c1` gave a melting point of 120 to 121 °C.
For the compound `CNCCCNc1ccc2c(NC(=O)CC34CC5CC(CC(C5)C3)C4)c(C)ccc2n1`, the melting point is 217 to 224 °C.
The same measure for `CC(=O)Nc1ccc2c(c1)COCO2`: 133 to 134 °C; for `CCC(Cl)C(=O)NCCSc1nc(C(C)(C)C)n[nH]1` (configuration not stated): 68 to 70 °C; for `CN(CCC#N)C(=O)c1nc(Cl)c(Cl)[nH]1`: 184 °C.
Consider `CCCCCOC(=O)C(N)C=CCP(=O)(O)O` (configuration not stated), for which the melting point is 160 to 161 °C.
With `CCC(=O)NCCC1CCc2ccc3c(c21)NC(=O)CO3` (configuration not stated), the melting point lay within 216 to 219 °C.
The compound `COC(=O)c1cc(C=O)cnc1C(=O)OC` gave a melting point of 75 to 77 °C.
Take `Cc1ccc(N2Cc3ccccc3P2(=O)c2ccccc2)cc1` (configuration not stated): the melting point was in the range of 197 to 199 °C.
`CCOC(=O)c1ccc(-c2ccc(C=O)cc2)cc1` had a melting point of 57 to 59 °C.
`Cc1cc(Cn2nc(C(F)(F)C(F)(F)F)nc2C(F)(F)F)ccc1NC(=O)c1cccc(Cl)c1C(=O)NC(C)(C)C=NO` yielded a melting point of 203 to 206 °C.
The same measure for `CC(C)(Oc1ccc(C#N)cc1)C(O)=Cc1ccncn1`: 115 to 117 °C.
Regarding `CCOc1cc(-c2cc(C(F)(F)F)n3ncc(C(=O)Nc4nc(C)c(S(=O)(=O)NC(C)(C)CO)s4)c3n2)ccc1C(F)(F)F`, the melting point was 276 °C.
On to `CS(=O)(=O)N1CCC(C(=O)N(CCCN2CCC(Cc3ccccc3)CC2)c2ccccc2)CC1`, for which the melting point fell in the range of 116 to 118 °C.
`COc1ccc(-c2c(C(=O)c3ccccc3)c(C)nc3cc(OC)c(OC)cc23)cc1OC` yielded a melting point of 151 to 152 °C.
In the case of `Cn1ncc(N2CCN(CC=Cc3ccccc3)CC2)c(Cl)c1=O`, the melting point lay in the range of 98 to 100 °C.
The same measure for `Cc1cccc2ncc(C(=O)NC3CCCC3)c(=O)n12`: 158 to 160 °C; for `CCOc1nc(C(F)(F)C(F)(F)F)cc(=O)n1-c1cc(O)c(Cl)cc1F`: 117 to 120 °C; for `CC(C=CCC(C)(C)O)C1CCC2C3=CC=C4CC(O)CCC4(C)C3CCC21C` (configuration not stated): 198 to 200 °C.
With `CC(C)(C)c1cc(N=C2CCc3cc4c(nc32)C(=Nc2cc(C(C)(C)C)cc(C(C)(C)C)c2)CC4)cc(C(C)(C)C)c1`, the melting point lay within 177 to 183 °C.
The compound `COc1cc2c(cc1CCNC(=O)Cc1ccc(OC)c(OC)c1)CCC2` came in with a melting point of 115 °C.
The same measure for `O=C(O)c1cccc([N+](=O)[O-])c1Nc1ccccc1Cl`: 213 to 215 °C; for `N#CCCNC(=O)c1n[nH]cc1NC(=O)c1ccccc1`: 186 to 187 °C; for `Cn1c(C(F)(F)F)ccc(-c2cc(C#N)c(Cl)cc2F)c1=O`: 180 to 181 °C.
Compound `COC(=O)c1cc2c3ccccc3n(Cc3ccccc3)c2s1` registered a melting point of 158 to 159 °C.
Regarding `COc1cc2c(cc1OC)C(O)N(CCc1ccccc1)C2=O` (configuration not stated), the melting point came to 130 °C.

By melting point is commonly meant the temperature, or range, at which the solid turns liquid.
